Here are results for ten compounds from patent US4981873A, “Substituted sulphonamides, pharmaceuticals thereof and methods of using them” (Boehringer Mannheim GmbH, priority 1988, dated 1991).

Test [1] relates to thrombocyte aggregation (U 46619-induced). Kind of test: TX antagonistic effect: inhibition of U 46619-induced thrombocyte aggregation in platelet-rich plasma (Born and Cross). It counts as cell-based. Conditions: human platelet-rich plasma, citrate, aggregation followed over 5 minutes, read-out: Thromboxane Aggregation IC50. The text has this:
1. TX Antagonistic Effect of Human […]
The thrombocyte aggregation is investigated by the method of Born and Cross (J. Physiol. 168, 178 (1963) in platelet-rich plasma of healthy blood donors. To inhibit clotting, the blood is mixed with 3.2% citrate in a ratio by volume of 1:9.
To induce thrombocyte aggregation, U 46619 (Upjohn & Co., Kalamazoo, USA), which is a stable analog of the prostaglandin endoperoxide […], is used. U 46619 was characterized as a selective thromboxane mimetic (Coleman et al., Brit. J. Pharmacol. 68, 127 P., 1980).
The aggregation test is carried out in a 4-channel aggregometer (Profiler® of the Bio/Data Co., USA). The course of the aggregation is followed over a period of 5 minutes. At the end of the test, the degree of aggregation attained is printed out. These values, which are obtained in the presence of different concentrations of the substance to be tested, are used for the determination of the IC50 for the TX antagonistic effect. The effectiveness varies inversely with the IC50 value.

The subject of test [2] is U 46619-Induced Pulmonary Embolism. Kind of test: Preventing the U 46619-induced pulmonary embolism (survival rate of mouse). The class given is in vivo. Conditions: male NMRI mice, lethal U 46619 injected i.v. (tail vein) after 4 hours; for Survival Rate of Mouse 1 mg/kg, 4 h in %: 1 mg/kg by stomach tube; for responders at 25 mg/kg: Mus musculus, iv. Here is the method:
2. Preventing the U 46619-Induced Pulmonary Embolism
Male NMRI mice, with a body weight of 25 g. are used. The test substance is suspended in 1% methylcellulose and administered to the experimental animals with the help of a stomach tube. The provocation test consists of injecting the lethal dose (800-1000/μg/kg) of the thromboxane mimetic (U 46619 of the Upjohn Co.) rapidly into the tail vein. The duration of the specific antagonistic effect is tested by pretreating the animals with 25 mg or 1 mg/kg of the different test substances and injecting U 46619 after 4 hours. The survival rate indicates how many of the animals used have survived the injection of the thromboxane mimetic.

Like-named read-outs stand apart in the source and are kept apart here.

Broadly, the IC50 is the point on the concentration scale where inhibition reaches its midpoint. Turning to “9-(4-Chlorobenzenesulphonamido)-3-thianonanoic acid [Example 6]”, the IC50 in test [1] was 3.4 µM. Further, the “Survival Rate of Mouse 1 mg/kg, 4 h in %” value in test [2] is listed as 100%. In test [2] (25 mg/kg by stomach tube), the “Survival Rate of Mouse 25 mg/kg, 4 h in %” value amounted to 80%.

On to `O=C(O)CSCCCCCCNS(=O)(=O)c1ccc(Cl)cc1` [Example 4, 9-(4-Chlorobenzenesulphonamido)-3-thianonanoic acid], for which the half-inhibitory concentration (IC50) in test [1] (5 min) came to 1.3 µM. Besides, the responders at 25 mg/kg in test [2] (25 mg/kg by stomach tube) stood at 40%.

With `O=C(O)C[S+]([O-])CCCCCCNS(=O)(=O)c1ccc(Cl)cc1` (stereo not shown) [Example 5, 9-(4-Chlorobenzenesulphonamido)-3-thianonanoic acid 3-oxide], the IC50 in test [1] (5 min) turned out to be 2.1 µM. In test [2] (25 mg/kg by stomach tube), this compound returned a responders at 25 mg/kg of 40%.

With `O=C(O)CSCCC/C=C\CNS(=O)(=O)c1ccc(Cl)cc1` [Example 7, (Z)-9-(4-Chlorobenzenesulphonamido)-3-thia-7-enenonanoic acid], in test [1] (5 min), the concentration for half-maximal inhibition (IC50) was found to be 1.4 µM. Also, the responders at 25 mg/kg in test [2] (25 mg/kg by stomach tube) was determined as 100%. For the same compound, the “Survival Rate of Mouse 1 mg/kg, 4 h in %” value in test [2] amounted to 60%.

In the case of `CC(C)(CCSCCNS(=O)(=O)c1ccc(Cl)cc1)C(=O)O` [Example 8, 7-(4-Chlorobenzenesulphonamido)-2,2-dimethyl-5-thiaheptanoic acid], the IC50 in test [1] (5 min) was 13 µM. This compound also displayed a responders at 25 mg/kg in test [2] (25 mg/kg by stomach tube) of 40%.

As for `CC(C)(CCSCCNS(=O)(=O)c1ccc(Cl)cc1)CC(=O)O` [Example 8.3, 8-(4-Chlorobenzenesulphonamido)-3,3-dimethyl-6-thiaoctanoic acid], in test [1] (5 min), the IC50 turned out to be 5 µM. Besides, the responders at 25 mg/kg in test [2] (25 mg/kg by stomach tube) was determined as 40%.

As to `CC(C)(SCCCCCNS(=O)(=O)c1ccc(Cl)cc1)C(=O)O` [Example 9, 8-(4-Chlorobenzenesulphonamido)-2,2-dimethyl-3-thiaoctanoic acid], in test [1] (5 min), the IC50 was 5.2 µM. In addition, in test [2] (25 mg/kg by stomach tube), the responders at 25 mg/kg is 40%.

For the compound `COc1ccc(S(=O)(=O)NCCCCCSC(C)(C)C(=O)O)cc1` [Example 9.2, 8-(4-Methoxybenzenesulphonamido)-2,2-dimethyl-3-thiaoctanoic acid], in test [1] (5 min), the IC50 turned out to be 100 µM. Besides, the responders at 25 mg/kg in test [2] (25 mg/kg by stomach tube) was 60%. The “Survival Rate of Mouse 1 mg/kg, 4 h in %” value in test [2] is on record as 20%.

`CC(C)(CCCSCCCNS(=O)(=O)c1ccc(Cl)cc1)C(=O)O` [Example 11, 9-(4-Chlorobenzenesulphonamido)-2,2-dimethyl-6-thianonanoic acid]: the IC50 in test [1] (5 min) came to 60 µM. Besides, in test [2] (25 mg/kg by stomach tube), the responders at 25 mg/kg is 80%. Besides, the “Survival Rate of Mouse 1 mg/kg, 4 h in %” value in test [2] came to 0%.

For the compound `CC(C)(CCSCCCNS(=O)(=O)c1ccc(Cl)cc1)CC(=O)O` [Example 11.2, 9-(4-Chlorobenzenesulphonamido)-3,3-dimethyl-6-thianonanoic acid], in test [1] (5 min), the half-inhibitory concentration (IC50) turned out to be 100 µM. This compound returned a responders at 25 mg/kg in test [2] (25 mg/kg by stomach tube) of 80%. Further, the “Survival Rate of Mouse 1 mg/kg, 4 h in %” value in test [2] stood at 0%.
